Results: ChEMBL document CHEMBL6127087 (Eur J Med Chem, 2024)
Activity calls are given as the source filed them. The calls are words filed in the database; no cut-off is given here.

How the values were obtained:
[1] = biological target: P2Y purinoceptor 6 (Homo sapiens, UniProt Q15077); assay: Antagonist activity at human P2Y6R expressed in CHO cells assessed as inhibition of UDP sodium salt-induced Ca2+ level by FLIPR calcium 6 assay; type: functional, cell-based
[2] = biological target: P2Y purinoceptor 2 (Homo sapiens) (UniProt P41231); assay: Antagonist activity at human P2Y2R stably expressed in HEK293 cells assessed as inhibition of UTP-induced IP3 accumulation preincubated with compound for 30 mins followed by UTP addition by ELISA; type: functional, cell-based
Sequence of P2Y purinoceptor 2 (Homo sapiens) (P41231 whole entry): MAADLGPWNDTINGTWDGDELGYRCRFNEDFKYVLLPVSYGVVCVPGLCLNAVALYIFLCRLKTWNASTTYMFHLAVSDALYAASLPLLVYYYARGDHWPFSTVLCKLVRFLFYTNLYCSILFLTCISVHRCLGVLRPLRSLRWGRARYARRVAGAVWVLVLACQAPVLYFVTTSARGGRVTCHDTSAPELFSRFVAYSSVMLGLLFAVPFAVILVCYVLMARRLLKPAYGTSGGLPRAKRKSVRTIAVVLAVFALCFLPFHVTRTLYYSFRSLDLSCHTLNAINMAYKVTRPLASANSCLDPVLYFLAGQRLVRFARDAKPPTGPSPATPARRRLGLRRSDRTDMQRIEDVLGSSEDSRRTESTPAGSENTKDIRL

[3] = biological target: P2Y purinoceptor 12 (Homo sapiens, UniProt Q9H244); assay: Antagonist activity at human P2Y12R stably expressed in HEK293 cells assessed as inhibition of MeSADP-induced cAMP accumulation preincubated with compound for 30 mins followed by MeSADP addition by cAMP-GloTM assay; type: functional, cell-based
Sequence of P2Y purinoceptor 12 (Q9H244 whole entry): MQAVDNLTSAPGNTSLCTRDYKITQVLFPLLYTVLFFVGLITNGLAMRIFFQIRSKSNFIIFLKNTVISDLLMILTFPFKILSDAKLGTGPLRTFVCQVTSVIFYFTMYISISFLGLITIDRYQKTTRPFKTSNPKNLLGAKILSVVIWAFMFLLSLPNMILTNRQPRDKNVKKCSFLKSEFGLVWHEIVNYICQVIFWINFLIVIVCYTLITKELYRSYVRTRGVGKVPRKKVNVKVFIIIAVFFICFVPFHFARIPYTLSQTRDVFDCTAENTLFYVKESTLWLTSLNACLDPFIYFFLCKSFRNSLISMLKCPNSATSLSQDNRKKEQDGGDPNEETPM

[4] = tested on: HEK-293T; assay: Cytotoxicity against HEK293T cells assessed as reduction in cell survival at >10 uM incubated for 12 to 24 hrs by CCK8 assay; type: toxicity, cell-based; details: human, time 12-24 hrs
[5] = tested on: HUVEC; assay: Cytotoxicity against HUVEC cells assessed as reduction in cell survival at >10 uM incubated for 12 to 24 hrs by CCK8 assay; type: toxicity, cell-based; details: human, time 12-24 hrs
[6] = biological target: Cytochrome P450 3A4 (Homo sapiens, UniProt P08684); assay: Inhibition of CYP3A4 in human liver microsomes using midazolam as substrate preincubated for 10 mins followed by NADPH addition and measured after 10 mins by LC-MS/MS analysis; type: ADME, Microsome
Sequence of Cytochrome P450 3A4 (P08684 whole entry): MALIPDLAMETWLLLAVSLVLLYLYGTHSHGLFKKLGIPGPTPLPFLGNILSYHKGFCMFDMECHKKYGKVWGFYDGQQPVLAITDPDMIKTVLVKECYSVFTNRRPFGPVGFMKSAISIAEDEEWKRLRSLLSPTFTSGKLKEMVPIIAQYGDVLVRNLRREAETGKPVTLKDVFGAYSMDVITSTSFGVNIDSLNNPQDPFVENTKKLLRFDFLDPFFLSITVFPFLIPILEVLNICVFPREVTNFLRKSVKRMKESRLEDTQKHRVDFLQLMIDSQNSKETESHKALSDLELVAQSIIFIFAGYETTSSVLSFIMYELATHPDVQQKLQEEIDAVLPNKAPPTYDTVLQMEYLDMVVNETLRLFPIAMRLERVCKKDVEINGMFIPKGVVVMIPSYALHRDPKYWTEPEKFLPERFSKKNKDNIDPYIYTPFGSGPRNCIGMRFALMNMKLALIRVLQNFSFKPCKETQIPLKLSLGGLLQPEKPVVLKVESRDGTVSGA

[7] = biological target: Cytochrome P450 2C19 (Homo sapiens, UniProt P33261); assay: Inhibition of CYP2C19 in human liver microsomes using s-mephenytoin as substrate preincubated for 10 mins followed by NADPH addition and measured after 10 mins by LC-MS/MS analysis; type: ADME, Microsome
Sequence of Cytochrome P450 2C19 (P33261 whole entry): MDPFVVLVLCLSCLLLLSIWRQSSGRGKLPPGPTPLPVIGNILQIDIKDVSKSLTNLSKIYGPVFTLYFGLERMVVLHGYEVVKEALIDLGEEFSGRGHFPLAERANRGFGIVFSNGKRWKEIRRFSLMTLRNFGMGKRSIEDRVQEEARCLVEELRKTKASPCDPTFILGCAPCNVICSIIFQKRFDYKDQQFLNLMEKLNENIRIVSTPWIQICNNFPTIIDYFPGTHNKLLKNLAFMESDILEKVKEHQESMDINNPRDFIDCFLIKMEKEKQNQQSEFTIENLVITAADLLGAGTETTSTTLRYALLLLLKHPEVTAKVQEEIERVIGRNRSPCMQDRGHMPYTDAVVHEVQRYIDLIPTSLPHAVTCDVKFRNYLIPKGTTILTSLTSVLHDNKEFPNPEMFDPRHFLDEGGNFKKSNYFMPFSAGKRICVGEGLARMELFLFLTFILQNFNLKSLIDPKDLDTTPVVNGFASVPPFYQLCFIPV

[8] = biological target: Cytochrome P450 2C9 (Homo sapiens, UniProt P11712); assay: Inhibition of CYP2C9 in human liver microsomes using diclofenac as substrate preincubated for 10 mins followed by NADPH addition and measured after 10 mins by LC-MS/MS analysis; type: ADME, Microsome
Sequence of Cytochrome P450 2C9 (P11712 whole entry): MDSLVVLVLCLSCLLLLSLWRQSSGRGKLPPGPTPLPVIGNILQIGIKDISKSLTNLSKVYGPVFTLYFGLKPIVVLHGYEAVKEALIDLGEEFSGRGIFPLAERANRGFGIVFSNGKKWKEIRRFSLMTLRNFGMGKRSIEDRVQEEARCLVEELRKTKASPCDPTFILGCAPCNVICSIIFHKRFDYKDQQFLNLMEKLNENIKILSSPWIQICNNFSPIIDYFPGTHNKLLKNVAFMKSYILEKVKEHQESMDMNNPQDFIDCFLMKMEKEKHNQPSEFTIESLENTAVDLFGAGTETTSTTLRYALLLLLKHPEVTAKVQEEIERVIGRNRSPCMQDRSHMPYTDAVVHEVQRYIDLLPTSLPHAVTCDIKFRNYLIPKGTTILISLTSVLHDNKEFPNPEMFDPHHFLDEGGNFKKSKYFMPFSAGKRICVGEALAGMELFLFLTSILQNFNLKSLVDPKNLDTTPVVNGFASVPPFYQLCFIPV

[9] = biological target: T1, Cytochrome P450 1A2 (Homo sapiens, UniProt P05177); assay: Inhibition of CYP1A2 in human liver microsomes using phenacetin as substrate preincubated for 10 mins followed by NADPH addition and measured after 10 mins by LC-MS/MS analysis; type: ADME, Microsome
T1 sequence (P05177 whole entry): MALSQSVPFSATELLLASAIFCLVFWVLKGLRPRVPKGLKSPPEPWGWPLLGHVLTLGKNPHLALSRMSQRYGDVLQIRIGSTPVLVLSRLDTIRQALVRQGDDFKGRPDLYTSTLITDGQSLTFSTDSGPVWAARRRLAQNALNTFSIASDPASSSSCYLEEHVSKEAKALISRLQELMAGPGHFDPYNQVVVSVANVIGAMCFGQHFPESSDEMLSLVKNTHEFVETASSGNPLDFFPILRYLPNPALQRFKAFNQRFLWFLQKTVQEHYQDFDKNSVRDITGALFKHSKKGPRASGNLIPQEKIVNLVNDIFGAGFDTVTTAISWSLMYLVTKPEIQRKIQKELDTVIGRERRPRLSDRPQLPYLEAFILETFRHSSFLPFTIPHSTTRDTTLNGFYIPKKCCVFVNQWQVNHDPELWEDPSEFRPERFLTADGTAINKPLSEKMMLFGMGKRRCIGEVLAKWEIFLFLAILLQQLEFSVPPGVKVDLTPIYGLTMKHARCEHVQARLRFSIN

[10] = biological target: Cytochrome P450 2D6 (Homo sapiens, UniProt P10635); assay: Inhibition of CYP2D6 in human liver microsomes using […] as substrate preincubated for 10 mins followed by NADPH addition and measured after 10 mins by LC-MS/MS analysis; type: ADME, Microsome
Sequence of Cytochrome P450 2D6 (P10635 whole entry): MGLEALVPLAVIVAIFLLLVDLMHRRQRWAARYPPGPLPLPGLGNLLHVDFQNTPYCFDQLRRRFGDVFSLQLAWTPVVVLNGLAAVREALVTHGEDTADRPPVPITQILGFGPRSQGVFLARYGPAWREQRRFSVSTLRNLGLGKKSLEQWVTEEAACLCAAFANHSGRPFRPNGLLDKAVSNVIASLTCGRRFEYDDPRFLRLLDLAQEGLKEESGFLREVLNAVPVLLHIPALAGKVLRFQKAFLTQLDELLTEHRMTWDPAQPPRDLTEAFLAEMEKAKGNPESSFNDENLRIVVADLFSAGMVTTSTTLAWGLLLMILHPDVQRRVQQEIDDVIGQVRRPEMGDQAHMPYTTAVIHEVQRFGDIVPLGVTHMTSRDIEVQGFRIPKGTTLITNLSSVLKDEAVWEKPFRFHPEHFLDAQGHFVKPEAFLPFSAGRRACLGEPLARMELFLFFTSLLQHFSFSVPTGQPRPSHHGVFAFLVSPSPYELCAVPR

[11] = Stability in simulated intestinal fluid assessed as half-life; type: physicochemical
[12] = Tmax in male Sprague-Dawley rat at 10 mg/kg, iv measured after 24 hrs by LC-MS/MS analysis; type: ADME, organism-based; details: male, Sprague-Dawley, in vivo, read-out: Tmax (converted)
[13] = Tmax in male Sprague-Dawley rat at 20 mg/kg, po measured after 24 hrs by LC-MS/MS analysis; type: ADME, organism-based; details: male, Sprague-Dawley, in vivo, read-out: Tmax (converted)
[14] = Oral bioavailability in male Sprague-Dawley rat at 20 mg/kg measured after 24 hrs by LC-MS/MS analysis; type: ADME, organism-based; details: male, Sprague-Dawley, in vivo
[15] = tested on: Mus musculus; assay: (§1) Anti-inflammatory activity in LPS-induced male C57BL/6 mouse model of acute […] injury assessed as reduction in IL-6 level in BALF at 2 to 6 mg/kg, IG preadministered with compound for 7 days followed by LPS administration and measured after 24 hrs by ELISA; type: functional, organism-based; details: dose 2-6 mg/kg, time 8.0 day
[16] = tested on: Mus musculus; assay: Anti-inflammatory activity in LPS-induced male C57BL/6 mouse model of acute […] injury assessed as reduction in TNF-alpha level in BALF at 2 to 6 mg/kg, IG preadministered with compound for 7 days followed by LPS administration and measured after 24 hrs by ELISA; type: functional, organism-based; details: dose 2-6 mg/kg, time 8.0 day
[17] = tested on: Mus musculus; assay: Anti-inflammatory activity in LPS-induced male C57BL/6 mouse model of acute […] injury assessed as reduction in infiltration of immune cells by measuring decrease in WBC count at 2 to 6 mg/kg, IG preadministered with compound for 7 days followed by LPS administration and measured after 24 hrs; type: functional, organism-based; details: dose 2-6 mg/kg, time 8.0 day
[18] = tested on: Mus musculus; assay: Anti-inflammatory activity in LPS-induced male C57BL/6 mouse model of acute […] injury assessed as reduction in dsDNA level in BALF at 2 to 6 mg/kg, IG preadministered with compound for 7 days followed by LPS administration and measured after 24 hrs by ELISA; type: functional, organism-based; details: dose 2-6 mg/kg, time 8.0 day
[19] = tested on: Mus musculus; assay: Anti-inflammatory activity in LPS-induced male C57BL/6 mouse model of acute […] injury assessed as reduction in neutrophil elastase level in BALF at 2 to 6 mg/kg, IG preadministered with compound for 7 days followed by LPS administration and measured after 24 hrs by ELISA; type: functional, organism-based; details: dose 2-6 mg/kg, time 8.0 day
[20] = tested on: Mus musculus; assay: as §1, with “tissue destruction” for “IL-6 level”, “lung” for “BALF”, “H and E staining based histopathological analysis” for “ELISA”; type: functional, organism-based; details: dose 2-6 mg/kg, time 8.0 day
[21] = tested on: Mus musculus; assay: as §1, with “interstitial edema” for “IL-6 level”, “lung” for “BALF”, “H and E staining based histopathological analysis” for “ELISA”; type: functional, organism-based; details: dose 2-6 mg/kg, time 8.0 day
[22] = tested on: Mus musculus; assay: as §1, with “absence of lesion” for “reduction”, “lung parenchyma” for “IL-6 level in BALF”, “H and E staining based histopathological analysis” for “ELISA”; type: functional, organism-based; details: dose 2-6 mg/kg, time 8.0 day
[23] = tested on: Mus musculus; assay: Anti-inflammatory activity in LPS-induced male C57BL/6 mouse model of acute […] injury assessed as inhibition of CCL2 mRNA expression at 2 to 6 mg/kg, IG preadministered with compound for 7 days followed by LPS administration and measured after 24 hrs by RT-PCR analysis; type: functional, organism-based; details: dose 2-6 mg/kg, time 8.0 day
[24] = tested on: Mus musculus; assay: In vivo inhibition of NLRP3 activation in LPS-induced male C57BL/6 mouse model of acute […] injury assessed as reduction in NLRP3 level in lung at 2 to 6 mg/kg, IG preadministered with compound for 7 days followed by LPS administration and measured after 24 hrs by Western blot analysis; type: functional, organism-based; details: dose 2-6 mg/kg, time 8.0 day

Sequence of P2Y purinoceptor 6 (Q15077 whole entry): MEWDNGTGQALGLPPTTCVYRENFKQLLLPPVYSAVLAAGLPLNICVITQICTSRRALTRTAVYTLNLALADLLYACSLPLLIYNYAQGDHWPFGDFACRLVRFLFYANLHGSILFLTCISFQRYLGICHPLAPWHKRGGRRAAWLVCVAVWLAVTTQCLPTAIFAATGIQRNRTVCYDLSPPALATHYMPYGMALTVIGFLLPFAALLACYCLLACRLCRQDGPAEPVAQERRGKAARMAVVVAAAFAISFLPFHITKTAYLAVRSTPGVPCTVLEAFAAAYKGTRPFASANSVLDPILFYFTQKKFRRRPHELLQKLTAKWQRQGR

Compound: O=C(O)CCC(=O)N1N=C(c2ccc[nH]2)CC1c1cnc2ccccc2c1 (centres undefined)
- IC50 [1]: 0.0196 µM
- Activity [2]: inactive
- Activity [3]: inactive
- Activity [4]: Non-Toxic
- Activity [5]: Non-Toxic
- IC50 [6]: > 50 µM
- IC50 [7]: > 50 µM
- IC50 [8]: 23.6 µM
- IC50 [9]: > 50 µM
- IC50 [10]: > 50 µM
- half-life [11]: > 300 min
- Tmax [12]: 28 min
- Tmax [13]: 46 min
- bioavailability [14]: 43%
- Activity [15]: Active
- Activity [16]: Active
- Activity [17]: Active
- Activity [18]: Active
- Activity [19]: Active
- Activity [20]: Active
- Activity [21]: Active
- Activity [22]: Active
- Activity [23]: Active
- inhibition [24]: Active
